Reference: patent publication US20250205201A1, “USE OF L-ERGOTHIONEINE FOR ALLEVIATING AND PREVENTING AGE-RELATED LENS DEGENERATION” (NANJING NUTRABUILDING BIO-TECH CO., LTD., priority 2023, published 2025)

Experiments:
Type in all cases: in vivo, rat (Sprague-Dawley)
[1] = tested on: intracellular chronic reactive oxygen species (ROS) in lens epithelial cells (LEC); test: Cytosolic ROS level in isolated rat lenses (H2-DCFH-DA staining) after 6 months of supplementation; details: FIG. 1
Protocol: (§1) Ten-day-old suckling rats (Sprague-Dawley, SD) were maintained under the barrier conditions in a temperature-controlled environment and fed a commercial mouse chow. All rat pups received a single subcutaneous injection of sodium selenite (20 μmol/kg body weight) on postpartum day 11. The opacity distribution (by surface plot and plot profile) of the rats' lenses were determined from the captured images by ImageJ analysis software after feeding 7 days. Testing opacity distribution aimed to show whether the formation of age-related lens degeneration is successful. The rats were then injected of sodium selenite every two weeks. And then these induced successfully rats were fed a commercial mouse chow for 15 months if succeeding.
Then these induced successfully rats were randomly divided into three groups: (1) non-supplement group (Group 1, Con, n=10); (2) L-ergothioncine supplement group with low dosage (Group 2, L-ergothioneine, 2 mg/kg/d, n=10); (3) L-ergothioncine supplement group with high dosage (Group 3, L-ergothioneine, 10 mg/kg/d, n=10). All rats were administered L-ergothioneine for once daily by gavage in normal saline solution for 6 months. The opacity distribution (by surface plot and plot profile) of the rats' lenses were observed from the captured images by ImageJ analysis software at the end of this study. […]

Nrf2 = Nrf2 mRNA level in LECs by real-time PCR after 6 months of supplementation; details: FIG. 2
Protocol: as §1, with “succeeding. […]” for “succeeding.”
Nrf2 dependent antioxidant protection system plays a crucial role in scavenging ROS generated during various biochemical reactions. […] Real-time PCR was measured and performed with the following primers: Nrf2 forward 5′-[…]-3′. RNA samples were reverse-transcribed to cDNA and subjected to quantitative PCR, performed with a Light Cycler 96 Real-Time PCR System using the AceQ qPCR SYBR Green Master Mix. […]

rats' lenses (opacity) = test: Opacity distribution of lenses in sodium selenite-induced aged rats (ImageJ); details: 2 or 10 mg/kg/d by gavage once daily for 6 months, vs non-supplement group
Protocol: as §1, with “succeeding. Then these induced successfully rats were randomly divided into three groups: (1) non-supplement group (Group 1, Con, n=10); (2) L-ergothioncine supplement group with low dosage (Group 2, L-ergothioneine, 2 mg/kg/d, n=10); (3) L-ergothioncine supplement group with high dosage (Group 3, L-ergothioneine, 10 mg/kg/d, n=10). All rats were administered L-ergothioneine for once daily by gavage in normal saline solution for 6 months. The opacity distribution (by surface plot and plot profile) of the rats' lenses were observed from the captured images by ImageJ analysis software at the end of this study.” for “succeeding.”

`C[N+](C)(C)[C@@H](Cc1c[nH]c(=S)[nH]1)C(=O)[O-]` [ergothioneine, L-ergothioneine] was tested, and the “efficacy in ROS scavenging, high-dose group compared to low-dose group” value ([1]; 10 mg/kg/d vs 2 mg/kg/d by gavage for 6 months) was “approximately double”, the “reduction of intracellular chronic ROS levels in LEC compared to the non-supplementation group” value ([1]; 2 and 10 mg/kg/d by gavage for 6 months) was “more than 25%” and the “increase of Nrf2 mRNA level in LECs over placebo” value (Nrf2; high-dose group, 10 mg/kg/d by gavage for 6 months) was “around 180%”. For the same molecule, the “increase of Nrf2 mRNA level in LECs compared to placebo” value (Nrf2; low-dose group, 2 mg/kg/d by gavage for 6 months) was roughly 50% and the “opacity of lens (opacity distribution by surface plot and plot profile)” value (rats' lenses (opacity)) was “effectively ameliorate or alleviate the opacity of lens”.
